Assay results as given in PMC3929365, “Benzimidazoisoquinolines: A New Class of Rapidly Metabolized Aryl Hydrocarbon Receptor (AhR) Ligands that Induce AhR-Dependent Tregs and Prevent Murine Graft-Versus-Host Disease” (PLoS ONE, 2014).
Values joined by “and” are separate entries in the source; they are usually repeats but may differ in a detail not shown here. Equal values may be shown once.

Assays:
[1] = system: AhR; test: AhR-regulated (XRE) luciferase reporter gene assay in Hepa-1 cells; type: cell-based, mouse; conditions: 10 nM, 12 h, Hepa1 cells, XRE-luciferase reporter
Protocol: Figure 1 10-Cl-BBQ is a potent AhR ligand. A) Structure of 10-Cl-BBQ. […] C) Hepa-1 cells expressing endogenous AhR were transfected with an AhR-regulated luciferase reporter gene (xenobiotic responsive element (XRE)-MMTVpromoter-Luc) and the reporter gene activity was measured after 12 h of treatment with 1 nM TCDD or the indicated concentrations of 10-Cl-BBQ. D) Alteration in proteolytic pattern of AhR by 10-Cl-BBQ. Whole cell lysate (45 µg of protein) from mouse hepatoma Hepa1c1c7 cells was incubated with 100 nM 10-Cl-BBQ or 0.1% DMSO for 1 h at RT and proteolyzed by 1 µg/ml subtilisin for 1, 2, 4, and 8 min at RT. Proteolytic cleavage products of AhR were analyzed by immunoblot. E) Electrophoretic mobility shift assay showing the ligand-stimulated binding of AhR to XRE. Whole cell lysate (18 µg of protein) from mouse hepatoma Hepa1c1c7 cells was incubated with 10 nM 10-Cl-BBQ or 0.1% DMSO for 2 h at room temperature and ^32P-labeled oligonucleotide containing XRE for 20 min at room temperature. The samples were electrophoresed on a native polyacrylamide gel and the signal was visualized by Phosphor Imager. Unlabeled competitor XRE or antibody (Ab) against AhR or Arnt was co-incubated with ^32P-labeled oligonucleotide.
The mean luciferase activity is shown with SEM. […] 3-MC binding to AhR.

[2] = system: AhR
Protocol: The AhR reporter gene assay was performed as previously described (20–22).
B) Hepa1 cells expressing endogenous AhR were transfected with a XRE-luciferase reporter gene. […] The mean luciferase activity is shown with SEM. C) Dose response curves for the competitive inhibition of [^3H] 3-MC binding to AhR.
3-methylcholanthrene (3-MC) to AhR (Fig. 5C).

[3] = system: donor CD4+ T cells; test: AhR-Treg phenotype of alloactivated donor CD4+ T cells 48 h after initiating the GVH response; type: in vivo, B6D2F1 host mice; conditions: 10 mg/kg i.p. day 0 and day 1, analysed day 2, vs vehicle
Protocol: Splenocytes and lymphocytes were harvested from C57Bl/6 mice. In some experiments, T cells were purified by negative selection using a Pan-T kit (Miltenyi Biotec) and stained with 2 µM carboxyfluorescein succinimidyl ester (CFSE) (Life Technologies). At least 2×10^7 purified T cells or approximately 1×10^8 pooled splenocytes and lymphocytes were injected i.v. into B6D2F1 host mice to initiate the GVH response. GVHD pathology was assessed on a scale of 0 to 3 (0 = normal, 1 = moderate morbidity, 2 = severe morbidity, 3 = death) according to the following five criteria: weight-loss, posture, activity, fur texture and death and reported as a Clinical GVHD Score.
Host mice were treated daily with vehicle, 10-Cl-BBQ or BBQ analogues by i.p. injection. The vehicle consisted of a mixture of 6.7% anisole and peanut oil. Mice treated with a single i.p. dose of 15 µg TCDD/kg body weight in the same vehicle were used as positive controls.
Antibodies to CTLA-4, Foxp3, ICOS, CD62L, CD25, CD19, CD44) and a fixable viability dye were purchased from eBiosciences. Additional antibody reagents included CD4 and CD8 (Life Technologies); H-2D^d (Biolegend) and CD45RB (PharMingen). After surface staining, the cells were fixed and permeabilized with Cytofix/cytoperm (BD Biosciences) for intracellular CTLA-4 stain. The flow cytometry data were acquired on an FC500 instrument (Beckman Coulter) and the data were analyzed using WinList 7.0 (Verity Software House). Fluorescence minus one (FMO) controls were used for setting histogram gates during the analysis.
Figure 3 10-Cl-BBQ induces an AhR-dependent Treg phenotype 48 h after initiating the GVH response. On day 0, B6D2F1 host mice in groups of 5 were injected with CFSE-labeled C57Bl/6 T cells and given 15 mg/kg 10-Cl-BBQ, 15 µg/kg TCDD or vehicle by i.p. injection. At 24 h, an additional dose of 7 mg/kg 10-Cl-BBQ or vehicle was given. […] Treatment mean ± SEM is shown in the quadrant of interest. […] C) AhR-dependent induction of the donor Treg phenotype by 10-Cl-BBQ. On day 0, B6D2F1 host mice in groups of 5 were injected with donor T cells obtained from AhR^+/+ or AhR^−/− C57Bl/6 mice. Host mice were treated with 2 mg/kg10-Cl-BBQ or vehicle immediately following donor cell transfer and again at 24 hr. […] D) Dose-dependent induction of Treg phenotype by 10-Cl-BBQ. On day 0, B6D2F1 host mice in groups of 3–5 were injected with C57Bl/6 T cells. Mice were immediately treated with 0, 0.4, 2 or 10 mg/kg 10-Cl-BBQ and again on day 1. On day 2, expression of markers associated with the AhR-Treg phenotype increased as the dose of 10-Cl-BBQ increased. E) In the same mice as in D, lymph nodes were harvested and analyzed for expression of genes that were previously shown to increase under the same GVH conditions with TCDD treatment (13). […] Changes in gene expression were calculated relative to the β-actin gene, and the fold-induction was calculated by the ΔΔCt method using the vehicle-treated samples as a control. * = p<0.05 relative to vehicle treatment. […]

[4] = system: CaMKK; design: method as in PMID 11867640; conditions: cited from earlier work
[5] = system: AhR; design: method as in PMID 18755850; conditions: MCF-7 cells and human macrophages; cited from earlier work

Compound	IC50 [2]	activation of AhR (AhR-regulated reporter gene activity) [1]	percentage of alloresponsive donor CD4+ T cells expressing CD25 with AhR-Treg markers ICOS, CD62Llow and CTLA-4 [3]	concentration known to fully inhibit CaMKK [4]	concentration at which AhR activation occurred [5]
NN1C(=O)c2ccc3c(=O)n4c5ccc(Cl)cc5nc4c4ccc(c2c34)C1=O [analogue 2, 2-Amino-10-chlorobenzimidazo[2,1-b]benzo[lmn][3,8]phenanthroline-1,3,6(2H)-trione]	–	did not induce reporter activity	–	–	–
11-Chloro-8H-benzimidazo[2,1-a]phenanthro[3,4,5-defg]isoquinolin-8-one [analogue 3]	–	2 fold	–	–	–
Clc1cc2c(cc1Cl)Oc1cc(Cl)c(Cl)cc1O2 [TCDD, 2,3,7,8-tetrachlorodibenzo-p-dioxin, reference compound]	4.7 nM	–	–	–	–

Further lines, with some results ahead:

IC50 [2]	Compound	activation of AhR (AhR-regulated reporter gene activity) [1]	percentage of alloresponsive donor CD4+ T cells expressing CD25 with AhR-Treg markers ICOS, CD62Llow and CTLA-4 [3]	concentration known to fully inhibit CaMKK [4]	concentration at which AhR activation occurred [5]
13.7 nM	O=c1c2cccc3cccc(c32)c2nc3ccccc3n12 [analogue 1, 7H-Benzimidazo[2,1-a]benzo[de]isoquinolin-7-one]	13 fold	significantly increased	–	–
5.2 nM	O=c1c2ccc(Cl)c3cccc(c32)c2nc3cc(Cl)ccc3n12 [analogue 4, 4,11-Dichloro-7H-benzimidazo[2,1-a]benzo[de]isoquinolin-7-one]	19 fold	significantly increased	–	–
45200 nM and 45000 nM	O=C(O)c1ccc2c3c1cccc3c(=O)n1c3ccccc3nc21 [analogue 5, 7-Oxo-7H-benzimidazo[2,1-a]benzo[de]isoquinoline-3-carboxylic acid, reference compound]	did not induce reporter activity	–	25 µM	25 µM
